In ChEMBL document CHEMBL5537177, “Discovery of Potent Antimalarial Type II Kinase Inhibitors with Selectivity over Human Kinases” (J Med Chem, 2024):

What was measured:
Plasmodium falciparum [1] = assay: Antiplasmodial activity against multidrug-resistant Plasmodium falciparum Dd2 at ring stage infected in A+ erythrocytes assessed as parasite growth reduction incubated for 72 hrs by SYBR Green I dye based analysis; type: functional, organism-based; conditions: Dd2, Erythrocyte
Plasmodium falciparum [2] = assay: Antiplasmodial activity against drug-sensitive Plasmodium falciparum 3D7 at ring stage infected in A+ erythrocytes assessed as parasite growth reduction incubated for 72 hrs by SYBR Green I dye based analysis; type: functional, organism-based; conditions: 3D7, Erythrocyte
Plasmodium falciparum [3] = assay: Resistance index, ratio of EC50 for multidrug-resistant Plasmodium falciparum Dd2 at ring stage infected in A+ erythrocytes to EC50 for drug-sensitive Plasmodium falciparum 3D7 at ring stage infected in A+ erythrocytes; type: organism-based; conditions: human
HepG2 = assay: Cytotoxicity against human HepG2 cells assessed as reduction in cell viability incubated for 48 hrs by MTS assay; type: toxicity, cell-based; conditions: hepg2
[4] = Selectivity index, ratio of EC50 for human HepG2 cells to EC50 for multidrug-resistant Plasmodium falciparum Dd2 at ring stage infected in A+ erythrocytes; type: toxicity, cell-based; conditions: read-out: Ratio EC50
MCF7 = assay: Cytotoxicity against human MCF7 cells assessed as reduction in cell viability incubated for 48 hrs by MTS assay; type: toxicity, cell-based; conditions: mcf7
[5] = Selectivity index, ratio of EC50 for human MCF7 cells to EC50 for multidrug-resistant Plasmodium falciparum Dd2 at ring stage infected in A+ erythrocytes; type: toxicity, cell-based; conditions: read-out: Ratio EC50
[6] = Metabolic stability in mouse liver microsomes assessed as half life; type: ADME, Liver cells
[7] = Metabolic stability in mouse liver microsomes assessed as intrinsic clearance; type: ADME, Liver cells

Compound | EC50 (Plasmodium falciparum [1]) [nM] | EC50 (Plasmodium falciparum [2]) [nM] | Ratio EC50 (Plasmodium falciparum [3]) | EC50 (HepG2) [nM] | selectivity ratio [4] | EC50 (MCF7) [nM] | selectivity ratio [5] | t1/2 [6] [min] | intrinsic clearance [7] [µL/min/mg]
CCN1CCN(Cc2ccc(NC(=O)c3cc(Cl)cc(NC(=O)c4cccc(-c5cccs5)c4)c3)cc2C(F)(F)F)CC1 | 253 | 196 | 1.3 | 5460 | 22 | 8360 | 33 |  | 
CCN1CCN(Cc2ccc(NC(=O)c3ccnc(NC(=O)c4cncc(-c5cccs5)c4)c3)cc2C(F)(F)F)CC1 | 579 | 356 | 1.6 | 3030 | 5.2 | 4610 | 8 |  | 
CCN1CCN(Cc2ccc(NC(=O)c3ccc(F)c(NC(=O)c4cncc(-c5cccs5)c4)c3)cc2C(F)(F)F)CC1 | 1320 | 763 | 1.7 | 3170 | 2.4 | 5100 | 3.9 |  | 
CCN1CCN(Cc2ccc(C(=O)Nc3cc(Cl)cc(NC(=O)c4cncc(-c5cccs5)c4)c3)cc2C(F)(F)F)CC1 | 104 | 73 | 1.4 | 9160 | 88 | 7030 | 68 |  | 
CCN1CCN(Cc2ccc(NC(=O)c3cc(Cl)cc(NC(=O)c4cncc(C#N)c4)c3)cc2C(F)(F)F)CC1 | 191 | 186 | 1 | 11000 | 58 | 7580 | 40 |  | 
CCN1CCN(Cc2ccc(NC(=O)c3cc(Cl)cc(NC(=O)c4cncnc4)c3)cc2C(F)(F)F)CC1 | 520 | 395 | 1.3 | 17300 | 33 | 15300 | 29 |  | 
CCN1CCN(Cc2ccc(NC(=O)c3cc(Cl)cc(Nc4cncc(-c5cccs5)c4)c3)cc2C(F)(F)F)CC1 | 296 | 253 | 1.2 | 3620 | 12 | 5530 | 19 |  | 
CCN1CCN(Cc2ccc(NC(=O)c3cc(Br)cc(NC(=O)c4cncc(-c5cccs5)c4)c3)cc2C(F)(F)F)CC1 | 61 | 39 | 1.6 | 4380 | 72 | 6590 | 108 | 40.7 | 17
CCN1CCN(Cc2ccc(NC(=O)c3cc(Cl)cc(NCc4cncc(-c5cccs5)c4)c3)cc2C(F)(F)F)CC1 | 344 | 310 | 1.1 | 5590 | 16 | 8330 | 24 |  | 
CCN1CCN(Cc2ccc(NC(=O)c3cc(NC(=O)c4cncc(-c5cccs5)c4)c(C)cc3F)cc2C(F)(F)F)CC1 | 1580 | 1460 | 1.1 | 4050 | 2.6 | 6910 | 4.4 |  | 
O=C(Nc1ccnc(N2CCOCC2)c1)c1cc(Cl)cc(NC(=O)c2cncc(-c3cccs3)c2)c1 | 739 | 700 | 1.1 | > 20000 | > 27 | 14700 | 20 |  | 
CCN1CCN(Cc2ccc(NC(=O)c3cc(Cl)cc(NC(=O)c4cncc(-c5ccco5)c4)c3)cc2C(F)(F)F)CC1 | 51 | 58 | 0.9 | 5410 | 106 | 6490 | 127 | 58.1 | 12
CCN1CCN(Cc2ccc(NC(=O)c3cc(Cl)cc(C(=O)Nc4cncc(-c5cccs5)c4)c3)cc2C(F)(F)F)CC1 | 109 | 82 | 1.3 | 4240 | 39 | 5360 | 49 |  | 
CCN1CCN(Cc2ccc(NC(=O)c3cc(Cl)cc(NC(=O)c4cccnc4)c3)cc2C(F)(F)F)CC1 | 147 | 127 | 1.2 | 10400 | 71 | 11000 | 75 | 15.1 | 46
CCN1CCN(Cc2ccc(NC(=O)c3cc(Cl)cc(NC(=O)c4cncc(-c5cncs5)c4)c3)cc2C(F)(F)F)CC1 | 56 | 74 | 0.8 | 6080 | 109 | 8140 | 145 | 52.1 | 13
O=C(Nc1cccc(C(F)(F)F)c1)c1cc(Cl)cc(NC(=O)c2cncc(-c3cccs3)c2)c1 | 1110 | 541 | 2.1 | > 20000 | > 18 | > 20000 | > 18 |  | 
CCN1CCN(Cc2ccc(NC(=O)c3ccc(OC)c(NC(=O)c4cncc(-c5cccs5)c4)c3)cc2C(F)(F)F)CC1 | 1540 | 821 | 1.9 | 3240 | 2.1 | 5060 | 3.3 |  | 
CCN1CCN(Cc2ccc(NC(=O)c3cc(Cl)cc(NC(=O)N4CCN(C)CC4)c3)cc2C(F)(F)F)CC1 | 1230 | 2120 | 0.6 | 14000 | 11 | 18800 | 15 |  | 
CCN1CCN(Cc2ccc(NC(=O)c3cc(F)cc(NC(=O)c4cncc(-c5cccs5)c4)c3)cc2C(F)(F)F)CC1 | 135 | 113 | 1.2 | 6690 | 50 | 10200 | 76 | 32.4 | 21
CCN1CCN(Cc2ccc(NC(=O)c3cc(Cl)cc(NC(=O)c4cncc(-c5cccs5)c4)c3)cc2)CC1 | 81 | 76 | 1.1 | 8770 | 108 | 10300 | 127 | 65.3 | 11
CCN1CCN(Cc2ccc(NC(=O)c3cc(NC(=O)c4cncc(-c5cccs5)c4)ccc3F)cc2C(F)(F)F)CC1 | 981 | 491 | 2 | 6710 | 6.8 | 10800 | 11 |  | 
CCN1CCN(Cc2ccc(NC(=O)c3cc(Cl)cc(NC(=O)c4cnc(N)nc4)c3)cc2C(F)(F)F)CC1 | 709 | 378 | 1.9 | 19200 | 27 | 13700 | 19 |  | 
CCN1CCN(Cc2ccc(NC(=O)c3cc(Cl)cc(NC(=O)c4ccccc4)c3)cc2C(F)(F)F)CC1 | 493 | 361 | 1.4 | 7240 | 15 | 6070 | 12 |  | 
